Reference: patent US20250051375A1, “ANTI-HIV COMPOUNDS” (Gilead Sciences, Inc., priority 2023, published 2025)
Converted amounts (≈) assume the structure as drawn.

What was measured:
Solubility in FaSSIF = conditions: 23 °C, pH 6.5, fassif, thermodynamic from solid
Description: Buffer Preparation: Fasted State Simulated Intestinal Fluid (FaSSIF): Simulated Intestinal Fluid (SIF) powder containing a complex of Taurocholate and Lecithin (4:1 molar ratio) was obtained from Biorelevant. 0.056 g of SIF powder was added to 25 mL of buffer, adjusted to pH 6.5, containing 0.011 g of NaOH (pellets), 0.099 g of NaH2PO4 (monohydrate), and 0.155 g of NaCl. The buffer was prepared with HPLC H2O. The SIE powder was stirred until completely dissolved and allowed to stand for 2 hours.
Test Compounds: Each test compound was placed in a vial containing approximately 7 mg of material. Aliquots were weighed out for each assay media at each time point to be analyzed. The buffer was added to each vial such that the final dose concentration of 5 mg/mL was achieved. Samples were then vortexed for 5-10 seconds.
The plate was sealed with a pierceable heat seal and analyzed by HPLC-UV.

HIV-1 IIIB strain = assay: MT-4 HIV Wild Type Virus Infection Assay (IIIB Virus); format: cell-based; conditions: Human immunodeficiency virus 1, IIIB, MT4, 120 h, MT-4 cells acutely infected with HIV-1 IIIB, 5 day incubation, Cell-titer glo
Description: Test compounds and controls were serially diluted and spotted in replicate into 384 well black assay plates via acoustic transfer (Echo). MT-4 cells were grown in batch, centrifuged and resuspended into fresh CCM media (RPMI w/10% FBS, 1% PS) at 2×10^6 cells/ml. MT-4 cells were acutely infected with HIV-1 IIIB strain. The size of each infection mix was scaled by the number of sample plates to be tested. Each infection mix was transferred into 5 mL closed tubes and nutated rapidly on a shaker at 37° C. incubator for 1 hour. The infection mixes were then diluted 25× in fresh cell culture media and then added to assay plates at 40 μL per well using a ViaFlo 384 pipettor. After 5 day incubation at 37° C. in a CO2 incubator, assay plates were processed with Cell-titer glo reagent using a ViaFlo 384 with an addition/mixing program. Plates were read immediately on Envision reader. Assay signals were plotted and dose response curves generated to determine individual compound EC50s.

[1] = molecular target: bovine intestinal alkaline phosphatase (Bos taurus (Bovine), UniProt P19111); assay: BiALP: conversion by bovine intestinal alkaline phosphatase; format: in vitro ADME; conditions: 2 μM substrate, 100 ng/mL iALP, Tris pH 7.8, 37° C., 60 minutes
Description: Fosamprenavir and its parent compound (amprenavir) were purchased from Millipore Sigma (St. Louis, MO). Test compounds, Intermediate A, fosamprenavir, and amprenavir were each separately dissolved in dimethyl sulfoxide (DMSO) at a concentration of 10 mM to form stock solutions.
All other chemicals were purchased from Millipore Sigma (St. Louis, MO) and Thermo Fisher Scientific (Waltham, MA). […] Internal Standard/Quench (IS/Q) was 100 nM labetalol in 99:1 (v/v) acetonitrile/formic acid.
Incubations were performed with Tris buffer alone (0.1 M Tris-HCl pH 7.8 containing 1 mM MgCl2 and 1 mM ZnCl2) or the same Tris buffer further containing 100 ng/mL iALP (0.01 units/mL). Triplicate 100 μL aliquots of Tris buffer±iALP were warmed to 37° C. and the reactions were initiated by the addition of the test compound or fosamprenavir to obtain final substrate concentrations of 2 μM. Incubations were then continued at 37° C. At 60 minutes, reactions were terminated by the addition of 200 μl of IS/Q and mixed by pipette. […] Aliquots (150 μL) of the supernatants were transferred to fresh plates containing 150 μL of water. Aliquots (15 μL) of the diluted supernatants were analyzed by mass spectrometry as described below.
Quantification of the test compounds and fosamprenavir was performed by analyte/internal standard peak area ratios (PARs) with comparison to 2 μM Intermediate A and amprenavir, respectively. The LC instrumentation consisted of a Thermo Scientific Vanquish pump and a Thermo Hypersil Gold column (1.9 μm particle size, 2.1×50 mm). […] The MS instrument was a Thermo Q Exactive™ Plus operating in positive ionization mode with mass tolerance of 5 ppm and calibrated on a twice weekly basis.

PBS Stability Assay = format: physicochemical; conditions: buffer, pH 7.4, 2 μM, phosphate buffered saline pH 7.4; read-out: PBS T½
Description: Reagents. Stock solutions of test compounds in dimethyl sulfoxide (DMSO) having a final concentration of 10 mM were prepared and used in all experiments. Sekisui XenoTech (Kansas City, KS) provided pooled intestinal S9 fractions. All other chemicals were purchased from Sigma-Aldrich (St. Louis, MO) or VWR (West Chester, PA). Internal Standard/Quench (IS/Q) used to stop reactions was 100 nM labetalol in (by volume) formic acid (1%) and acetonitrile (99%).
PBS Stability Assay: For each test compound, an aliquot of the test compound was added to phosphate buffered saline (137 mM NaCl, 2.7 mM KCl, 10 mM phosphate buffer), pH 7.4. The incubation was initiated by the addition of the test compound to PBS to a final concentration of 2 μM. At 0, 10, 20, 30, 60 and 120 min, 25 μL aliquots of the incubation mixture were transferred to plates containing 225 μl of IS/Q solution. After quenching, the plates were centrifuged at 3000×g for 30 minutes. 150 μL aliquots of each supernatant were transferred to new plates and 150 μL water was added. Aliquots (10 μL) of the prepared samples were analyzed on a Thermo Q-Exactive mass spectrometer as described below.
Liquid Chromatography-Mass Spectrometry: Quantification of test compounds and control substrate was performed by analyte/internal standard peak area ratio (PAR) values measured on a Thermo Q-Exactive mass spectrometer coupled to a Dionex UltiMate 3000 HPLC with a Leap Technologies HTC PAL autosampler. The column used for analysis was a Thermo Scientific Hypersil GOLD (1.9 μm particle size, 50×2.1 mm). Mobile phase A consisted of 0.1% (v/v) formic acid in water. Mobile phase B consisted of 0.1% (v/v) formic acid in acetonitrile. Elution of analytes was achieved by a series of linear gradients varying the proportions of A and B. The mass spectrometer was calibrated on a weekly basis and mass tolerance of 5 ppm was used.
Data Analysis. Metabolic stabilities were determined by measuring the rates of disappearance of test compound and positive control substrate. Data (% of substrate remaining) were plotted on a semi-log scale and fitted using an exponential decline model:
where • Ct% of substrate remaining at time=t • C0% of substrate remaining at time=0 • t time • T½ half-life • The Half-life (T½) is determined by the following equation:
[formula] • Assuming a first-order reaction, the slope (k) is extrapolated from the aforementioned plotted data.

bovine intestinal alkaline phosphatase, sequence (P19111 20-506): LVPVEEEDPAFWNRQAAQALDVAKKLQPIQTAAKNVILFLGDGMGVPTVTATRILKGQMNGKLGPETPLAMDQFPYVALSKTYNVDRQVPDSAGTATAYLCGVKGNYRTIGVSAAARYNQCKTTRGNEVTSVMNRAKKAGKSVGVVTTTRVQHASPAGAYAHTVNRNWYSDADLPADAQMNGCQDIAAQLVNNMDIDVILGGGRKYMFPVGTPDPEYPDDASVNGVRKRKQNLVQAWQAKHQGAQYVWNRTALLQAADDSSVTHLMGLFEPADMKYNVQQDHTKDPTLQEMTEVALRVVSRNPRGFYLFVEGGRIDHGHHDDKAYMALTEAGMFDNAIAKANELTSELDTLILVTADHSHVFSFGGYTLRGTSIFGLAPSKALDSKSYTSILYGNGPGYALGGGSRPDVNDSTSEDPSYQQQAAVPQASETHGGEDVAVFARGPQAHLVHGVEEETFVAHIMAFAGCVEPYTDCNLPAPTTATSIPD

SMILES	solubility at 2 h (Solubility in FaSSIF)	EC50 (HIV-1 IIIB strain)	[Compound] [1]	half-life at 2 μM (PBS Stability Assay)	biALP Intermediate A or [Amprenavir] (% of total) [1]	[Intermediate A] or [Amprenavir] ([1]; parent formed)
COC(=O)N[C@H](C(=O)N[C@@H](Cc1ccc(C#Cc2cnc(N3CC4CCC(C3)N4C3COC3)nc2)cc1)[C@H](CN(Cc1c(F)cc(-c2ccn(C(F)F)n2)cc1F)NC(=O)[C@@H](NC(=O)OC)C(C)(C)C(F)(F)F)OC(=O)CC(C)(C)c1c(CC(=O)NC(CCCC(=O)O)CC(=O)O)cc(C)cc1OP(=O)(O)O)C(C)(C)C(F)(F)F (some centres unmarked) [Example 37]	4460 µg/mL (≈ 2720 µM)	41.8 nM	1518.9 nM	7.32 h		
COC(=O)N[C@H](C(=O)N[C@@H](Cc1ccc(C#Cc2cnc(N3CC4CCC(C3)N4C3COC3)nc2)cc1)[C@H](CN(Cc1c(F)cc(-c2ccn(C(F)F)n2)cc1F)NC(=O)[C@@H](NC(=O)OC)C(C)(C)C(F)(F)F)OC(=O)CC(C)(C)c1c(CC(=O)NCCCS(=O)(=O)O)cc(C)cc1OP(=O)(O)O)C(C)(C)C(F)(F)F [Example 25]	2410 µg/mL (≈ 1500 µM)	62.7 nM	2023.7 nM	1.37 h		
COC(=O)N[C@H](C(=O)N[C@@H](Cc1ccc(C#Cc2cnc(N3CC4CCC(C3)N4C3COC3)nc2)cc1)[C@H](CN(Cc1c(F)cc(-c2ccn(C(F)F)n2)cc1F)NC(=O)[C@@H](NC(=O)OC)C(C)(C)C(F)(F)F)OC(=O)CC(C)(C)c1c(CC(=O)NCc2ccc(C(F)F)cc2)cc(C)cc1OP(=O)(O)O)C(C)(C)C(F)(F)F [Example 50, (5S,10S,11S,14S)-8-(4-(1-(difluoromethyl)-1H-pyrazol-3-yl)-2,6-difluorobenzyl)-11-(4-((2-(8-(oxetan-3-yl)-3,8-diazabicyclo[3.2.1]octan-3-yl)pyrimidin-5-yl)ethynyl)benzyl)-3,6,13,16-tetraoxo-5,14-bis(1,1,1-trifluoro-2-methylpropan-2-yl)-2,17-dioxa-4,7,8,12,15-pentaazaoctadecan-10-yl 3-(2-(2-((4-(difluoromethyl)benzyl)amino)-2-oxoethyl)-4-methyl-6-(phosphonooxy)phenyl)-3-methylbutanoate]	< 1000 µg/mL	1720 nM	2228.1 nM	8.26 h	0 % of total	0.3 nM
COC(=O)N[C@H](C(=O)N[C@@H](Cc1ccc(C#Cc2cnc(N3CC4CCC(C3)N4C3COC3)nc2)cc1)[C@H](CN(Cc1c(F)cc(-c2ccn(C(F)F)n2)cc1F)NC(=O)[C@@H](NC(=O)OC)C(C)(C)C(F)(F)F)OC(=O)OCOC(=O)CC(C)(C)c1c(CC(=O)N[C@@H](CC(N)=O)C(=O)O)cc(C)cc1OP(=O)(O)O)C(C)(C)C(F)(F)F [Example 72]	4980 µg/mL (≈ 2980 µM)	5.4 nM	827.8 nM	6.12 h		
COC(=O)N[C@H](C(=O)N[C@@H](Cc1ccc(C#Cc2cnc(N3CC4CCC(C3)N4C3COC3)nc2)cc1)[C@H](CN(Cc1c(F)cc(-c2ccn(C(F)F)n2)cc1F)NC(=O)[C@@H](NC(=O)OC)C(C)(C)C(F)(F)F)OC(=O)OCOC(=O)CC(C)(C)c1c(CC(=O)N2CCN(S(N)(=O)=O)CC2)cc(C)cc1OP(=O)(O)O)C(C)(C)C(F)(F)F [Example 85]	< 1000 µg/mL	2.4 nM	1466.1 nM	2.27 h		
COC(=O)N[C@H](C(=O)N[C@@H](Cc1ccc(C#Cc2cnc(N3CC4CCC(C3)N4C3COC3)nc2)cc1)[C@H](CN(Cc1c(F)cc(-c2ccn(C(F)F)n2)cc1F)NC(=O)[C@@H](NC(=O)OC)C(C)(C)C(F)(F)F)OC(=O)CC(C)(C)c1c(CC(=O)N(C)CCCC(=O)O)cc(C)cc1OP(=O)(O)O)C(C)(C)C(F)(F)F [Example 93]	< 1000 µg/mL	55.8 nM	1917.5 nM	2.77 h		
COC(=O)N[C@H](C(=O)N[C@@H](Cc1ccc(C#Cc2cnc(N3CC4CCC(C3)N4C3COC3)nc2)cc1)[C@H](CN(Cc1c(F)cc(-c2ccn(C(F)F)n2)cc1F)NC(=O)[C@@H](NC(=O)OC)C(C)(C)C(F)(F)F)OC(=O)CC(C)(C)c1c(CC(=O)N2CCN(CC(=O)O)CC2)cc(C)cc1OP(=O)(O)O)C(C)(C)C(F)(F)F [Example 82]	< 1000 µg/mL	335 nM	1224.3 nM	6.71 h		
COC(=O)N[C@H](C(=O)N[C@@H](Cc1ccc(C#Cc2cnc(N3CC4CCC(C3)N4C3COC3)nc2)cc1)[C@H](CN(Cc1c(F)cc(-c2ccn(C(F)F)n2)cc1F)NC(=O)[C@@H](NC(=O)OC)C(C)(C)C(F)(F)F)OC(=O)CC(C)(C)c1c(CC(=O)NCCOP(=O)(O)O)cc(C)cc1OP(=O)(O)O)C(C)(C)C(F)(F)F [Example 100, (5S,10S,11S,14S)-8-(4-(1-(difluoromethyl)-1H-pyrazol-3-yl)-2,6-difluorobenzyl)-11-(4-((2-(8-(oxetan-3-yl)-3,8-diazabicyclo[3.2.1]octan-3-yl)pyrimidin-5-yl)ethynyl)benzyl)-3,6,13,16-tetraoxo-5,14-bis(1,1,1-trifluoro-2-methylpropan-2-yl)-2,17-dioxa-4,7,8,12,15-pentaazaoctadecan-10-yl 3-methyl-3-(4-methyl-2-(2-oxo-2-((2-(phosphonooxy)ethyl)amino)ethyl)-6-(phosphonooxy)phenyl)butanoate]	4450 µg/mL (≈ 2770 µM)	42.4 nM	1103.4 nM	5.22 h		
COC(=O)N[C@H](C(=O)N[C@@H](Cc1ccc(C#Cc2cnc(N3CC4CCC(C3)N4C3COC3)nc2)cc1)[C@H](CN(Cc1c(F)cc(-c2ccn(C(F)F)n2)cc1F)NC(=O)[C@@H](NC(=O)OC)C(C)(C)C(F)(F)F)OC(=O)CC(C)(C)c1c(CC(=O)N(C)[C@@H](C)C(=O)O)cc(C)cc1OP(=O)(O)O)C(C)(C)C(F)(F)F [Example 97]	4660 µg/mL (≈ 2970 µM)	204 nM	1772.9 nM	4.64 h		
